Results published in patent US8546137B2, “Inhibition of dendritic cell-driven regulatory T cell activation and potentiation of tumor antigen-specific T cell responses by interleukin-15 and MAP kinase inhibitor” (The Board of Trustees of the University of Arkansas, priority 2007, dated 2013).

What was measured:
[1] = tested on: CD25 preferentially expressed by CD4+ Treg; conditions: patients with renal cell carcinoma, combined with tumor RNA-transfected DC vaccination; cited from earlier work
[2] = tested on: hepsin 48-84 peptide-specific CD4+ T cells; test: TNFα expression by CD4+ T cells stimulated with treated DC; type: cell-based, human; conditions: DC treated throughout culture; IL-15 100 ng/ml, inhibitor 10 μM; relative to standard DC; T cells maintained with IL-2
Description: (§1) Foxp3 expression was determined according to the manufacturer's staining protocol (eBioscience), using the provided fixation and permeabilization buffers. Intracellular cytokine expression was measured by flow cytometry after overnight co-culture of T cells with peptide-pulsed or control autologous LCL. T cells (1.5×10^6) were plated in 12 well Costar plates in 2 ml RPMI/10Hu. T cells were stimulated with phorbol myristyl acetate (50 ng/ml) and ionomycin (500 ng/ml) as a positive control. At the onset of co-culture, 10 μg/ml of Brefeldin A was added to block cytokine release. Cells were collected after overnight stimulation and fixed in 2% paraformaldehyde in PBS for 10 minutes at room temperature. The cells were washed once in PBS and again in 0.5% saponin and 1% BSA in PBS. T cells were labeled with cytokine-specific PE or FITC-conjugated mAb for 30 minutes at room temperature. After staining, the cells were washed twice in 0.5% saponin and 1% BSA in PBS, once with 0.5% BSA in PBS, and fixed in 2% paraformaldehyde in PBS. Samples were analyzed with a FACSCalibur (Becton-Dickinson) and Cellquest or WinMDI software.
Treatment of DC with IL-15 and a p38 MAP kinase inhibitor enhances CD4^+ helper T cell TNFα expression in response to tumor antigen stimulation, and diminishes Treg foxp3 expression. […]

[3] = tested on: tumor antigen-specific CD4+ T cells; test: CCR4 and CXCR4 expression by CD4+ T cells stimulated with treated DC; type: cell-based, human; conditions: treatment of DC
Description: (§2) Treatment of DC with IL-15 and a p38 MAP kinase inhibitor enhances CD4^+ helper T cell TNFα expression in response to tumor antigen stimulation, and diminishes Treg foxp3 expression. DC were treated with IL-15 (100 ng/ml) and/or a p38 MAP kinase inhibitor (10 μM p38 MAP kinase inhibitor III, from Calbiochem, La Jolla, Calif.) throughout their culture (i.e., from day 0 through completion of DC maturation on day 7). DC were loaded with the hepsin 48-84 peptide antigen on day 5 (i.e., at the time of addition of maturation cytokines).

[4] = tested on: tumor antigen-specific CD4+ T cells; test: PD-1 expression by CD4+ T cells stimulated with treated DC; type: cell-based, human; conditions: treatment of DC
Description: as §2

[5] = tested on: peptide-loaded autologous LCL; test: 51Cr-release cytotoxicity assay, CD8+ T cells against peptide-loaded autologous LCL; type: cell-based, human
Description: (§3) Peripheral blood was drawn from healthy adult volunteer donors, following an IRB-approved protocol. PBMC were recovered by gradient centrifugation (Lymphoprep; Greiner Bio-One, Longwood, Fla.). For preparation of DC, PBMC were placed in 6 well plates (Costar, Cambridge, Mass.) at a concentration of 5×10^6/well in AIM-V medium. After incubation for 2-3 hours at 37° C., non-adherent cells were removed and the medium was replaced with AIM-V plus 800 U/ml GM-CSF and 500 U/ml IL-4. On days 3 and 5, half the medium was removed and replaced with AIM-V plus 800 U/ml GM-CSF and 500 U/ml IL-4. Maturation cytokines (1 μM/ml PGE2, 1000 U/ml TNFα, and 500 U/ml IL-1β) were added on day 5. Where indicated, IL-15 (100 ng/ml) was present throughout DC culture (i.e., from day 0, and supplemented on days 3 and 5). For stimulation of peptide-specific CD4^+ helper T cell and CD8^+ CTL responses, DC were loaded with 50 μg/ml of peptide on day 5 (at the time of addition of maturation cytokines) and the DC were harvested 2 days later. The DC were then washed once with AIM-V medium and used for T cell stimulation at a PBMC:DC ratio of 30:1. After 7 days, T cells were collected and restimulated with peptide-loaded DC. […]
(§4) Standard ^51Cr-release assays were performed as described (24). […] The percentage of target cell lysis was calculated as described (24).

[6] = tested on: matriptase 170-204 peptide-specific CD8+ T cells; test: Treg assay: coculture of peptide-specific CD8+ T cells with autologous alloreactive CD4+ T cells (MLR, 3H-TdR); type: cell-based, human
Description: as §3, with “later.” for “later. The DC were then washed once with AIM-V medium and used for T cell stimulation at a PBMC:DC ratio of 30:1. After 7 days, T cells were collected and restimulated with peptide-loaded DC.”
DC-activated, peptide-specific T cells were tested for Treg activity in 3 day microwell cocultures with autologous alloreactive CD4^+ T cells at a 1:1 ratio. […] For all assays, proliferation of alloreactive CD4^+ T cells was determined by addition of 1 μCi/well ^3H-TdR for the last 16 hours of incubation. […]

[7] = tested on: matriptase 170-204 peptide-specific CD4+ T cells; test: Treg assay: coculture of peptide-specific CD4+ T cells with autologous alloreactive CD4+ T cells (MLR, 3H-TdR); type: cell-based, human
Description: (§5) Peripheral blood was drawn from healthy adult volunteer donors, following an IRB-approved protocol. PBMC were recovered by gradient centrifugation (Lymphoprep; Greiner Bio-One, Longwood, Fla.). For preparation of DC, PBMC were placed in 6 well plates (Costar, Cambridge, Mass.) at a concentration of 5×10^6/well in AIM-V medium. After incubation for 2-3 hours at 37° C., non-adherent cells were removed and the medium was replaced with AIM-V plus 800 U/ml GM-CSF and 500 U/ml IL-4. On days 3 and 5, half the medium was removed and replaced with AIM-V plus 800 U/ml GM-CSF and 500 U/ml IL-4. Maturation cytokines (1 μM/ml PGE2, 1000 U/ml TNFα, and 500 U/ml IL-1β) were added on day 5. Where indicated, IL-15 (100 ng/ml) was present throughout DC culture (i.e., from day 0, and supplemented on days 3 and 5). For stimulation of peptide-specific CD4^+ helper T cell and CD8^+ CTL responses, DC were loaded with 50 μg/ml of peptide on day 5 (at the time of addition of maturation cytokines) and the DC were harvested 2 days later. The DC were then washed once with AIM-V medium and used for T cell stimulation at a PBMC:DC ratio of 30:1. After 7 days, T cells were collected and restimulated with peptide-loaded DC. After the second stimulation, CD4^+ or CD8^+ T cells were recovered by positive selection with anti-CD4 or anti-CD8 magnetic beads (Dynabeads, Invitrogen), respectively, yielding populations of at least 95% purity. During the second and subsequent T cell passages (up to a maximum of six restimulations with peptide-loaded DC, at T cell:DC ratios of between 30:1 and 10:1), 20-100 U/ml IL-2 was added to the medium, and the cultures were periodically fed (every 2-3 days) by changing 50-70% of the medium and addition of fresh IL-2. Where indicated, T cell cultures were supplemented with 100 ng/ml IL-15, starting with the second passage.
DC-activated, peptide-specific T cells were tested for Treg activity in 3 day microwell cocultures with autologous alloreactive CD4^+ T cells at a 1:1 ratio. The alloreactive CD4^+ T cells were stimulated with irradiated (7,500 cGy) allogeneic LCL at a 2:1 ratio. Transwell cocultures were conducted in 12-well Costar plates with 0.4 μm polycarbonate membrane inserts, at the same cell ratios as conventional microwell cocultures. Peptide-specific T cells were placed in the upper chamber, and alloreactive CD4^+ T cells plus irradiated allogeneic LCL were placed in the lower chamber. For all assays, proliferation of alloreactive CD4^+ T cells was determined by addition of 1 μCi/well ^3H-TdR for the last 16 hours of incubation. No exogenous cytokines were added to Treg coculture assays. Controls were included to correct for background proliferation of individual cell populations or spontaneous alloreactivity of peptide-specific T cells.

[8] = tested on: matriptase 170-204 peptide-specific, DC-activated CD4+ T cells; test: Foxp3 and GITR expression by flow cytometry, CD4+ T cells; type: cell-based, human
Description: as §5
as §1, with “T cells were labeled with cytokine-specific PE or FITC-conjugated mAb for 30 minutes at room temperature. After staining, the cells were washed twice in 0.5% saponin and 1% BSA in PBS, once with 0.5% BSA in PBS, and fixed in 2% paraformaldehyde in PBS.” left out

[9] = tested on: peptide-loaded autologous LCL; test: 51Cr-release cytotoxicity assay, CD4+ T cells against peptide-loaded autologous LCL; type: cell-based, human
Description: as §3, §4

[10] = tested on: matriptase 170-204 peptide-specific CD4+ T cells; test: Intracellular Th1 cytokine (TNFα, IFNγ) expression after challenge with peptide-loaded autologous LCL; type: cell-based, human
Description: as §3, with “5).” for “5). For stimulation of peptide-specific CD4^+ helper T cell and CD8^+ CTL responses, DC were loaded with 50 μg/ml of peptide on day 5 (at the time of addition of maturation cytokines) and the DC were harvested 2 days later. The DC were then washed once with AIM-V medium and used for T cell stimulation at a PBMC:DC ratio of 30:1. After 7 days, T cells were collected and restimulated with peptide-loaded DC.”
(§6) Foxp3 expression was determined according to the manufacturer's staining protocol (eBioscience), using the provided fixation and permeabilization buffers. Intracellular cytokine expression was measured by flow cytometry after overnight co-culture of T cells with peptide-pulsed or control autologous LCL. […] Samples were analyzed with a FACSCalibur (Becton-Dickinson) and Cellquest or WinMDI software.

[11] = tested on: matriptase 170-204 peptide-specific, DC-activated CD8+ T cells; test: Foxp3 and GITR expression by flow cytometry, CD8+ T cells; type: cell-based, human
Description: as §3, with “DC. After the second stimulation, CD4^+ or CD8^+ T cells were recovered by positive selection with anti-CD4 or anti-CD8 magnetic beads (Dynabeads, Invitrogen), respectively, yielding populations of at least 95% purity.” for “DC.”
as §6

[12] = IL-15 added to CD4+ T cell cultures activated with conventional DC
[13] = conventional DC or IL-15-treated DC, T cells maintained with IL-2 plus IL-15

denileukin diftitox
Treg in the peripheral blood [1]: reduced numbers of Treg | generation of tumor-specific T cell responses [1]: enhanced generation of tumor-specific T cell responses

p38 MAP kinase inhibitor III [reference compound]
CD4+ T cell TNFα expression upon tumor antigen stimulation [2]: did not significantly increase | CD4+ T cell expression of CCR4 [3]: markedly enhanced | CD4+ T cell expression of CXCR4 [3]: inhibited | PD-1 expression by tumor antigen-specific CD4+ helper T cells [4]: markedly reduces

IL-15: interleukin-15, cytokine from R & D Systems, used at 100 ng/ml in DC and/or T cell culture
gain in lysis, CD8+ T cell cytotoxicity ([5]; IL-15 treatment of DC or CD8+ T cells): lower than observed for CD4^+ T cell responses | CD8+ T cell cytotoxicity against peptide-loaded LCL ([5]; combined treatment of both DC and CD8+ T cells with IL-15): strong synergistic increase | CD4+ T cell TNFα expression upon tumor antigen stimulation [2]: did not significantly increase | CD8+ Treg activity ([6]; IL-15 treatment of DC alone): particularly effective in diminishing | CD8+ regulatory function ([6]; IL-15 treatment of DC, of CD8+ T cells, or both): markedly diminished | restoration of the mixed lymphocyte reaction (CD4+ Treg activity) ([7]; IL-15-treated DC, or IL-15 treatment of CD4+ T cells activated with conventional DC): significant restoration | inhibition of the mixed lymphocyte reaction by peptide-specific CD4+ T cells (Treg activity) ([7]; T cells cultured with IL-15, or activated by DC cultured with IL-15, or both (bars B, C, D), conventional about 90%): less than 60% | restoration of the mixed lymphocyte reaction (CD4+ Treg activity) ([7]; both DC and CD4+ T cells treated with IL-15): further enhancement of alloreactivity | restoration of the mixed lymphocyte reaction (CD4+ Treg activity) ([7]; peptide-specific CD4+ T cells irradiated before coculture, IL-15 on DC, T cells or both): almost total restoration of the MLR | Foxp3 expression by CD4+ T cells [8, 12]: did not result in a significant change | frequency of GITR+ CD4+ T cells (total) [8, 12]: 8% | Foxp3 expression, proportion of CD4+ T cells ([8]; activated with IL-15-treated DC (100 ng/ml), maintained with IL-2, conventionally activated cells 33%): 20% | frequency of Foxp3+ and GITR+ CD4+ T cells ([8]; activated with IL-15 treated DC and maintained with IL-2 plus IL-15): markedly enhanced | CD4+ T cell expression of CCR4 [3]: slightly inhibited | CD4+ T cell expression of CXCR4 [3]: enhances | PD-1 expression by tumor antigen-specific CD4+ helper T cells [4]: markedly reduces | CD4+ T cell lysis of peptide-loaded LCL ([9]; IL-15-treated DC followed by culture with IL-2 plus IL-15, additive): further gain in lysis | CD4+ T cell cytotoxicity ([9]; IL-15 treatment of DC or CD4+ T cells): marked enhancement | antigen-driven cytokine responses (TNFα, IFNγ) of CD4+ T cells ([10]; combined IL-15 treatment of both DC and CD4+ T cells): synergistic gain | frequency of CD4+ T cells expressing TNFα and IFNγ ([10]; treatment of DC with IL-15 or treatment of CD4+ T cells with IL-15): small increment | Foxp3 expression, proportion of CD8+ T cells ([11]; activated with IL-15-treated DC, maintained with IL-2): 37% | GITR expression by CD8+ T cells [11, 13]: did not show increased GITR expression | frequency of Foxp3+ CD8+ T cells [11, 13]: elevated frequencies
